Data from paper PMC10216605, “Developing In Vitro Models to Define the Role of Direct Mitochondrial Toxicity in Frequently Reported Drug-Induced Rhabdomyolysis” (Biomedicines, 2023).
Like-named read-outs stand apart in the source and are kept apart here.

What was measured:
L6 cells [1] = test: Acute metabolic switch assay (cellular ATP content, glucose vs galactose media) in L6 differentiated myotubes; settings: for Mitotoxicity classification in acute metabolic switch assay: based on IC50-ATPglu vs IC50-ATPgal; for IC50: Rattus norvegicus, L6, 2 h
Description: They were then seeded into collagen-coated wells (50 µg/mL in 0.02 M of acetic acid) at a density of 16,000 cells/100 μL/well (96 well plates) and 10,000 cells/100 μL/well (XF 96-well cell culture microplates). The cells were next incubated for 24 h in complete growth medium to promote adherence, after which the growth medium was removed and the cells washed twice with 1× HBSS. The L6 myoblasts were then cultured in differentiation medium consisting of high-glucose DMEM (25 mM) supplemented with L-glutamine (4 mM), sodium pyruvate (1 mM), HEPES (5 mM), and horse serum (2% v/v). Fresh differentiation medium was provided every 48 h for 7 days.
(§1) On the day of the assay, the media on the differentiated myotubes were replaced with either serum-free high-glucose (DMEM, 25 mM of glucose, 4 mM of L-glutamine, 1 mM of sodium pyruvate, and 5 mM of HEPES) or serum-free galactose (DMEM, 10 mM of galactose, 6 mM of L-glutamine, 1 mM of sodium pyruvate, and 5 mM of HEPES) media (100 µL) for 2 h (37 °C, 5% CO2). The glucose and galactose media were removed and replaced with drug-dosing solutions in either glucose or galactose media as appropriate, before incubation (2 h, 37 °C, 5% CO2). […] Vehicle control was included in each experiment.
(§2) The cellular ATP content was measured using a bioluminescence assay kit, alongside the concomitant measurement of protein using a bicinchoninic acid (BCA) assay kit to normalise ATP data to the total protein. Briefly, the cells were lysed using ATP lysis buffer (50 µL/well) and the plate was shaken (5 min). According to the manufacturer’s instructions, 40 µL of ATP reagent was added to each well containing 5 µL of cell lysate in a white 96-well plate. The […] luminescence signal was measured immediately using a plate reader (Varioskan, Thermo Scientific, Schaumburg, IL USA).

HSKMDC = test: Mitochondrial stress test (Seahorse XFe96 respirometry) in HSKMDC; assay type: cell-based, human; settings: acute injection
Description: On the day of the assay, for the analysis of the acute injection of the drug on differentiated myotubes, the differentiation media was replaced with 175 µL of unbuffered Seahorse Assay media supplemented with 25 mM of glucose, 4 mM of L-glutamine, 1 mM of sodium pyruvate, and 5 mM of HEPES pre-warmed to 37 °C, then incubated in a CO2 free incubator at 37 °C for 1 h. Alternately, in the pre-treatment strategy, differentiated myotubes were pre-treated with the drug for 5 h in differentiation medium, then transferred to a CO2-free incubator at 37 °C for 1 h. Next, the differentiation media were replaced with 175 µL of unbuffered Seahorse Assay media supplemented with the constituents stated above. Briefly, using the XF^e96 instrument (Seahorse extracellular flux analyser, Agilent Technologies, Santa Clara, CA, USA), the oxygen partial pressure in each well was allowed to reach equilibrium for 10 min. The oxygen consumption rate (OCR) was measured three times at baseline; then, there was a 3 min mix for each measurement followed by a 3 min wait. […] In the acute injection method, the drug injection was only performed at the end of the basal measurement cycles, followed by the mitochondrial inhibitors described above. The duration of the assay was 120 min (acute injection) and 90 min (pre-treatment strategy). From each mitochondrial stress test was determined the OCR parameters of non-mitochondrial respiration (NMR = lowest measurement after rotenone/antimycin A); basal respiration (BR = last measurement before oligomycin − NMR); proton-leak (PL = BR − lowest respiration after oligomycin); ATP-linked respiration (ALR = BR − PL); maximum respiratory capacity (MRC = highest measurement after FCCP − NMR); and spare respiratory capacity (SRC = MRC − BR).

L6 cells [2] = settings: 6 h exposure
Description: The mitochondrial stress test allowed confirmation of mitotoxicity and further identification of the specific mechanisms through quantification of OXPHOS parameters: basal respiration (BR), ATP-linked respiration (ALR), and spare respiratory capacity (SRC). On the day of the assay, for the analysis of the acute injection of the drug on differentiated myotubes, the differentiation media was replaced with 175 µL of unbuffered Seahorse Assay media supplemented with 25 mM of glucose, 4 mM of L-glutamine, 1 mM of sodium pyruvate, and 5 mM of HEPES pre-warmed to 37 °C, then incubated in a CO2 free incubator at 37 °C for 1 h. Alternately, in the pre-treatment strategy, differentiated myotubes were pre-treated with the drug for 5 h in differentiation medium, then transferred to a CO2-free incubator at 37 °C for 1 h. Next, the differentiation media were replaced with 175 µL of unbuffered Seahorse Assay media supplemented with the constituents stated above. Briefly, using the XF^e96 instrument (Seahorse extracellular flux analyser, Agilent Technologies, Santa Clara, CA, USA), the oxygen partial pressure in each well was allowed to reach equilibrium for 10 min. The oxygen consumption rate (OCR) was measured three times at baseline; then, there was a 3 min mix for each measurement followed by a 3 min wait. […] In the acute injection method, the drug injection was only performed at the end of the basal measurement cycles, followed by the mitochondrial inhibitors described above. The duration of the assay was 120 min (acute injection) and 90 min (pre-treatment strategy). From each mitochondrial stress test was determined the OCR parameters of non-mitochondrial respiration (NMR = lowest measurement after rotenone/antimycin A); basal respiration (BR = last measurement before oligomycin − NMR); proton-leak (PL = BR − lowest respiration after oligomycin); ATP-linked respiration (ALR = BR − PL); maximum respiratory capacity (MRC = highest measurement after FCCP − NMR); and spare respiratory capacity (SRC = MRC − BR) [42, 43].

[3] = FAERS analysis of reported rhabdomyolysis cases per suspect drug; settings: for Number of Death Cases (n = 576): monotherapy rhabdomyolysis cases with fatal outcome
Description: Due to the quarterly updating of the database by the FDA, the searches were performed using the term “rhabdomyolysis” on one occasion to ensure the data were extracted at that specified period. All individual files were downloaded and saved from this one timepoint to specify the analysis period used in this study. Further refinement was performed using Microsoft Excel to extract only cases where the suspect drug was reported as a monotherapy, using the generic name of the suspect drugs. To ensure data accuracy, any case reported by a consumer or company underwent further checks to ensure it had not been previously reported by a healthcare provider, by confirming that no duplication of case ID was present.

[4] = tested on: primary human skeletal muscle-derived cells (HSKMDC); test: cells; assay type: cell-based; settings: 2 h exposure; for IC50: Homo sapiens, Myotube, mean ± S.D. (n = 3)
Description: (§3) HSKMDC myoblasts were collected by trypsinisation using trypsin-EDTA (0.05%) upon reaching 50% confluence and seeded into collagen-coated wells, at a density of 20,000 cells/100 μL/well (96 well plates) and 25,000 cells/100 μL/well (XF 96-well cell culture microplates). After 24 h, the cells were washed twice with 1× PBS (-/-), and growth media were replaced with differentiation medium containing DMEM low-glucose media (glucose 5 mM), L-glutamine (4 mM), sodium pyruvate (1 mM) supplemented with 2% (v/v) horse serum, and (10 nM) human insulin. The medium was refreshed every 48 h for 5 days.
as §1, §2

[5] = tested on: primary human skeletal muscle-derived cells (HSKMDC); test: cells; assay type: cell-based; settings: for IC50: Homo sapiens, Myotube, 2 h
Description: as §3, §1
Cytotoxicity was detected using a lactate dehydrogenase (LDH) assay kit. Briefly, according to the manufacturers’ instructions, 25 µL of the supernatant and 10 µL of cell lysate were incubated with 50 µL of LDH reagent for 30 min in the dark. Samples were read at 490 nm using a plate reader.

SMILES | Mitotoxicity classification in acute metabolic switch assay (L6 cells [1]; L6 cells, 2 h exposure) | Classification from pattern of changes in BR, ALR and SRC (HSKMDC) | Concentration at which significant reduction of ATP-linked respiration was first observed (HSKMDC) | Classification from pattern of changes in BR, ALR and SRC (L6 cells [2]) | (%) of total rhabdomyolysis cases ([3]; FAERS 2004 to 31 March 2020, of 27,140 cases) | Number of Rhabdomyolysis Cases ([3]; FAERS 2004 to 31 March 2020, total 27,140 rhabdomyolysis cases, some cases with more than one suspected drug) | Number of Death Cases (n = 576) [3] | (%) of monotherapy rhabdomyolysis cases ([3]; monotherapy, of 6583 cases) | Number of Rhabdomyolysis Cases (n = 6583) ([3]; suspected drug reported as a single drug used (monotherapy), FAERS 2004 to 31 March 2020) | IC50-ATPglu/IC50-ATPgal (L6 cells [1]; L6 cells, 2 h exposure, […]) | IC50 (L6 cells [1]; read-out: ATP IC50 Galactose) | IC50 (L6 cells [1]; read-out: ATP IC50 Glucose) | IC50-ATPglu/IC50-ATPgal [4] | IC50-ATPglu/IC50-ATPgal ([4]; listed as rotenone) | IC50 ([4]; galactose serum-free media, read-out: ATP IC50 Galactose) | IC50 ([4]; glucose serum-free media, read-out: ATP IC50 Glucose) | IC50-LDH gal/ IC50-ATP al ([5]; HSKMDC, 2 h exposure, galactose media) | IC50 ([5]; read-out: LDH IC50 Galactose) | IC50 ([5]; read-out: LDH IC50 Glucose)
CC(C)OC(=O)C(C)(C)Oc1ccc(C(=O)c2ccc(Cl)cc2)cc1 [Fenofibrate] | containing a mitochondrial liability | direct inhibitors of the electron transport chain | 3.6 µM | direct inhibitors of the electron transport chain | 1.7% | 449 | 6 | 1.9% | 126 | – | – | – | – | – | – | – | – | – | –
C=C(C)[C@H]1Cc2c(ccc3c2O[C@@H]2COc4cc(OC)c(OC)cc4[C@@H]2C3=O)O1 [Rotenone] | – | – | – | – | – | – | – | – | – | >138.9 (<0.0001) | 0.036 ± 0.008 µM | > 5 µM | >318.4 (<0.0001) | > 318 | 0.016 ± 0.007 µM | > 5 µM | >312.5 | > 5 µM | > 5 µM
Cc1nc2n(c(=O)c1CCN1CCC(c3noc4cc(F)ccc34)CC1)CCCC2 [Risperidone] | containing a mitochondrial liability | direct inhibitors of the electron transport chain | 11 µM | direct inhibitors of the electron transport chain | – | – | 7 | – | – | – | – | – | – | – | – | – | – | – | –
